Laboratory results published in US5116851A, “Pharmaceutical composition and method for treating cardiovascular diseases using substituted anilides and sulfonamides” (E. R. Squibb & Sons, Inc., priority 1990, dated 1992).
Where a name gives a salt, the structure may show the parent alone.

What was measured:
[1] = tested on: Ischemic and Nonischemic Isolated Rat Heart; experiment: Isolated perfused rat heart (Langendorff), global ischemia/reperfusion: cardiac function, flow and LDH release; set-up: species or system rat (male Sprague-Dawley); FLOW (coronary blood flow): unit not given here; conditions: for DP (Double Product, HR x LVDP / 1,000) / FLOW (coronary blood flow) / HR (Heart Rate) / LVDP (Left Ventricular Developed Pressure) / LDH (Lactate Dehydrogenase Release) / LDH/DP / cardioprotection compared with diltiazem: 1 μM; for LDH (Lactate Dehydrogenase Release): Postischemia, cumulative over 30 min reperfusion, per g preischemia heart weight, lower = greater cardioprotection; for LDH/DP: ratio of cardioprotection to cardiodepression, lower = greater selectivity; for cardioprotection compared with diltiazem: post-ischemia LDH
Description: Lactate dehydrogenase is an enzyme released in the heart during an ischemic event and is an index of cardiac cell necrosis. In the Grover et al. model, this is measured during reperfusion and an agent which provides for lower release levels of LDH is considered to offer greater cardioprotection since lower LDH indicates a smaller infarct size. Cardiac function is determined using the double product (DP) of heart rate times the left ventricular developed pressure (LVDP) divided by 1,000.
The lower the value for DP before ischemia for a given agent, the more cardiodepressant it is considered to be.
Male Sprague-Dawley rats (450-550 g) were used in all experiments. The rats were anesthetized using 30 mg/kg sodium pentobarbital (i.p.). They were intubated and then treated with i.v. heparin (1000 U/kg). While being mechanically ventilated, their hearts were perfused in situ via retrograde cannulation of the aorta. The hearts were then excised and quickly moved to a Langendorff apparatus where they were perfused with Krebs-Henseleit bicarbonate buffer (112 mM NaCl, 5 mM KCl, 1.2 mMMg SO4, 1 mM KH2 PO4, 1.25 mM CaCl2, 11.5 mM dextrose, and 2 mM pyruvate) at a constant pressure (75 mm Hg). A water filled latex balloon attached to a metal cannula was then inserted into the left ventricle and connected to a Statham pressure transducer for measurement of left ventricular pressure. The hearts were allowed to equilibrate for 15 minutes at which time end diastolic pressure (EDP) was adjusted to 5 mm Hg and this was maintained for 5 minutes. Pre-ischemia or pre-drug function, heart rate and coronary blood flow (extracorporeal electromagnetic flow probe, Carolina Medical Electronics, King, N.C.) were then measured. Cardiac function was determined using the double product of heart rate (HR) times left ventricular developed pressure (LVDP) divided by 1,000.
All of these hearts were treated with their respective drugs or vehicle for ten minutes. At this time, post-drug cardiac function and flow were measured and then the hearts were made globally ischemic by shutting off the buffer perfusion. The ischemia was maintained for 25 minutes at which time reperfusion with nondrug treated buffer was instituted. Reperfusion was maintained for 30 minutes and at this time reperfusion function and flow were again determined.
At the end of the reperfusion period, the reperfusion buffer was sampled for cumulative LDH release as previously described. LDH release was expressed as U/g preischemia heart weight for the 30 minute collection period. LDH release is a sensitive index for loss of cell viability. Determination of the relationship between pre-ischemic, post-drug cardiac function was made by dividing the double product (HR ×LVDP/1000) by the cumulative LDH release.
All data were analyzed using a one way analysis of variance. Multiple comparisons were done using the Duncan procedure. All data are expressed as the mean±SE.
The pre-ischemia DP values are a measure of the cardiodepression of the drug on the healthy cardiac tissue.
The post-ischemia LDH values are a measure of the cardioprotection or anti-ischemic activity of the drug. In this case, lower values indicate greater anti-ischemic activity or greater cardioprotection.
The LDH/DP values are the ratio of cardioprotection to cardiodepression, the lower values indicating a greater selectivity for anti-ischemic activity.
The post-ischemia DP indicates cardiodepression after the ischemic episode and the lower DP values here are indicative of agents which still remained in the cardiac tissue for more than 30 minutes post ischemia. [drawing 16]

[2] = tested on: isolated canine cardiac Purkinje fibers; experiment: Normal action potential parameters incl. upstroke velocity (Vmax; sodium entry), standard microelectrode techniques; assay type: cell-based; conditions: for Vmax (velocity of upstroke): in V/s (unit assumed)
Description: (§1) The calcium channel blocking and sodium entry blocking activities of compounds of the present invention were tested using standard microelectrode techniques in isolated canine cardiac Purkinje fibers as reported in J. L. Bergey et al., "Antiarrhythmic, hemodynamic, and cardiac electrophysiological evaluation of N-(2,6-dimethylphenyl)-N'-[3-(1-methylethylamino)propyl]-urea), (Wy 42,362)", Arzneim -Forsch, 33:1258, 1983). […] Depression of this parameter indicates depression of calcium entry into cardiac tissue. […] Significant depression of the upstroke velocity (vmax) indicates the blocking of sodium entry into cardiac tissue.

rabbit aorta = experiment: Reduction of tone of rabbit aorta by high potassium (Vasc. Ca^++ Block); assay type: cell-based; conditions: Oryctolagus cuniculus; read-out: IC50 in reducing tone of rabbit aorta by high potassium (Vasc. Ca^++ Block)
Source text: |(SAPA), in reducing maximum upstroke velocity (Vmax) |and in reducing tone of rabbit aorta by high potassium |(Vasc. Ca^++ Block)

[3] = tested on: isolated canine cardiac Purkinje fibers; experiment: Calcium-dependent slow response action potential amplitude (SAPA), standard microelectrode techniques; assay type: cell-based; conditions: Canis lupus familiaris, read-out: IC50 in reducing slow response action potential amplitude (SAPA)
Description: as §1

[4] = Postischemia (30 min.), occlusion 25 minutes, reperfusion 30 minutes
[5] = Preischemia (Post Drug), lower = more cardiodepressant

| Structure (SMILES) | DP (Double Product, HR x LVDP / 1,000) [1, 4] | FLOW (coronary blood flow) [1, 4] | HR (Heart Rate) [1, 4] [beats/min] | LVDP (Left Ventricular Developed Pressure) [1, 4] [mmHg] | LDH (Lactate Dehydrogenase Release) [1] [U/g] | FLOW (coronary blood flow) ([1]; Preischemia (Post Drug)) | HR (Heart Rate) ([1]; Preischemia (Post Drug)) [beats/min] | LVDP (Left Ventricular Developed Pressure) ([1]; Preischemia (Post Drug)) [mmHg] | DP (Double Product, HR x LVDP / 1,000) [1, 5] | LDH/DP [1] | other results |
| --- | --- | --- | --- | --- | --- | --- | --- | --- | --- | --- | --- |
| COc1ccc([C@@H]2Sc3ccccc3N(CCN(C)C)C(=O)[C@@H]2OC(C)=O)cc1 [Diltiazem, reference compound] | 24 | 17 | 231 | 104 | 10 | 22 | 217 | 45 | 10 | 0.98 | ischemic selectivity among diltiazem, nifedipine and verapamil ([1]; Grover et al. methodology): greatest ischemic selectivity |
| COc1ccc(CSc2ccccc2N(CCCN(C)C)C(=O)Cc2ccccc2)cc1 [Example 2, N-[3-(Dimethylamino)propyl]-N-[2-[[(4-methoxyphenyl)methyl]thio]phenyl]benzeneacetamide, monohydrochloride] | 14 | 11 | 188 | 73 | 8.9 | 20 | 219 | 135 | 29 | 0.30 |  |
| CN(C)CCCN(C(=O)Cc1ccccc1)c1ccccc1SCc1ccccc1.Cl [Example 3, N-[3-(Dimethylamino)propyl]-N-[2-[(phenylmethyl)thio]phenyl]benzeneacetamide, monohydrochloride] | 22 | 11 | 238 | 93 | 5.2 | 18 | 243 | 79 | 19 | 0.30 | APD 50 (action potential duration @ 50% repolarization) ([2]; 1 × 10^-5): 123 ± 2; APD90 (action potential duration @ 90% repolarization) ([2]; 1 × 10^-5): 271 ± 8; PP (peak potential) ([2]; 1 × 10^-5): 7 ± 1; RP (resting potential) ([2]; 1 × 10^-5): 84 ± 1; Vmax (velocity of upstroke) ([2]; 1 × 10^-5): 156 ± 11; APD 50 (action potential duration @ 50% repolarization) ([2]; 1 × 10^-6): 181 ± 5; APD90 (action potential duration @ 90% repolarization) ([2]; 1 × 10^-6): 282 ± 2; PP (peak potential) ([2]; 1 × 10^-6): 32 ± 1; RP (resting potential) ([2]; 1 × 10^-6): 88 ± 1; Vmax (velocity of upstroke) ([2]; 1 × 10^-6): 401 ± 16; APD 50 (action potential duration @ 50% repolarization) ([2]; 3 × 10^-6): 125 ± 3; APD90 (action potential duration @ 90% repolarization) ([2]; 3 × 10^-6): 251 ± 1; PP (peak potential) ([2]; 3 × 10^-6): 26 ± 1; RP (resting potential) ([2]; 3 × 10^-6): 88 ± 1; Vmax (velocity of upstroke) ([2]; 3 × 10^-6): 286 ± 9; IC50 ([2]; Canis lupus familiaris, purkinje, sodium entry, read-out: IC50 in reducing maximum upstroke velocity (Vmax)): 3.8 µM; IC50 (rabbit aorta): 1.7 µM; cardioprotection compared with diltiazem [1]: offered more cardioprotection than diltiazem; IC50 [3]: 1.5 µM |
| CN(C)CCN(C(=O)Cc1ccccc1)c1ccccc1SCc1ccccc1.Cl [Example 4, N-[2-(Dimethylamino)ethyl]-N-[2-[(phenylmethyl)thio]phenyl]benzeneacetamide, monohydrochloride] | 15 | 15 | 239 | 60 | 21 | 20 | 236 | 123 | 30 | 0.79 |  |
| CN(C)CCCCN(C(=O)Cc1ccccc1)c1ccccc1SCc1ccccc1 [Example 5, N-[4-(Dimethylamino)butyl]-N-[2-[(phenylmethyl)thio]phenyl]benzeneacetamideoxalate (1:1) salt] | 10 | 11 | 180 | 51 | 16.5 | 15 | 253 | 115 | 29 | 0.57 |  |
| CN(C)CCCN(C(=O)Cc1ccccc1)c1ccccc1OCc1ccccc1.O=C(O)C(=O)O [Example 6, N-[3-(Dimethylamino)propyl]-N-[2-(phenylmethoxy)phenyl]benzeneacetamide, oxalate salt (1:1)] | 20 | 10 | 222 | 89 | 5.7 | 15 | 230 | 113 | 26 | 0.22 |  |
| CN(C)CCCN(C(=O)c1ccccc1)c1ccccc1SCc1ccccc1.Cl [Example 7, 2'-(Benzylthio)-N-[3-(dimethylamino)propyl]benzanilide, hydrochloride] | 15 | 8 | 220 | 72 | 6.7 | 11 | 218 | 132 | 29 | 0.24 |  |
| COc1cc(SCc2ccccc2)c(N(CCCN(C)C)C(=O)Cc2ccccc2)cc1OC [Example 8, N-[3-(Dimethylamino)propyl]-N-[4,5-dimethoxy-2-sulfonyl),[(phenylmethyl)thio]phenyl]benzeneacetamide, oxalate (1:1) salt] | 17 | 8 | 246 | 71 | 3.7 | 19 | 216 | 65 | 14 | 0.26 |  |
| COc1ccc(CSc2cc(Cl)ccc2N(CCCN(C)C)C(=O)Cc2ccccc2)cc1.Cl [Example 9, N-[3-(Dimethylamino)propyl]-N-[4-chloro-2-[[(4-methoxyphenyl)methyl]thio]phenyl]benzeneacetamide, monohydrochloride] | 11 | 9 | 214 | 52 | 8.2 | 18 | 226 | 126 | 29 | 0.29 | cardioprotection compared with diltiazem [1]: comparable to diltiazem in cardioprotection |
| CN(C)CCCCN(C(=O)C=Cc1ccccc1)c1ccccc1SCc1ccccc1 [Example 24, N-[4-(Dimethylamino)butyl]-3-phenyl-N-[2-[(phenylmethyl)thio]phenyl]-2-propenamide, oxalate salt (1:1)] |  |  |  |  |  |  |  |  |  |  | IC50 (rabbit aorta): 1.2 µM; IC50 [3]: 2.6 µM |
